Assay results published in patent US20040248867A1, “Novel anti-inflammatory 17α-heterocyclic-esters of 17βcarbothioate androstane derivatives” (priority 2001, published 2004).

Tested on: progesterone receptor
Test: Screen for progesterone receptor activity (T47D alkaline phosphatase); selectivity versus glucocorticoid receptor
Format: cell-based, human
Conditions: further experiments (additional data); ED50 at progesterone receptor divided by ED50 at glucocorticoid receptor
Experimental: The human breast cancer cell line T47D has been reported to upregulate an endogenous alkaline phosphatase in response to progestins (Di Lorenzo et al., Cancer Research (1991) 51, 4470-4475. T47D cells were seeded into 96 well plates at a density of 1×10^5 cells per well and grown overnight at 37° C. Steroids were dissolved in DMSO, added to the cells (final DMSO concentration 0.7%), and incubated for 24 hours at 37° C. The cells were then washed with PBS and lysed with RIPA buffer (1% IGEPAL, 0.5% Na deoxycholate, 0.1% SDS in phosphate buffered saline). Alkaline phosphatase activity was measured spectrophotometrically (405 nm) using p-nitrophenylphosphate (1.5 mg/ml) as a substrate dissolved in 1M diethanolamine, 0.28M NaCl, 0.5 mM MgCl2. Dose response curves were constructed from which EC50 values were estimated.
Compounds were tested for progesterone activity in accordance with the above screen and the selectivity was determined by dividing the ED50 at the progesterone receptor by the ED50 at the glucocorticoid receptor.

In order of falling Selectivity:
1. CC1CC2C3CC(F)C4=CC(=O)C=CC4(C)C3(F)C(O)CC2(C)C1(OC(=O)C1(C)CCCO1)C(=O)SCF (stereo not drawn) [Example 8B, 6α,9α-Difluoro-11β-hydroxy-16α-methyl-3-oxo-17-(2-methyl-tetrahydrofuran-2-ylcarbonyl)oxy-androsta-1,4-diene-17β-carbothioic acid S-fluoromethyl ester]  63855
2. CC1CC2C3CC(F)C4=CC(=O)C=CC4(C)C3(F)C(O)CC2(C)C1(OC(=O)C1(C)CCCO1)C(=O)SCF (stereo not drawn) [Example 8A, 6α,9α-Difluoro-11β-hydroxy-16α-methyl-3-oxo-17-(2-methyl-tetrahydrofuran-2-ylcarbonyl)oxy-androsta-1,4-diene-17β-carbothioic acid S-fluoromethyl ester]  49425
3. CC1CC2C3CC(F)C4=CC(=O)C=CC4(C)C3(F)C(O)CC2(C)C1(OC(=O)C1(C)CCCS1)C(=O)SCF (stereo not drawn) [Example 13A, 6α,9α-Difluoro-11β-hydroxy-16α-methyl-3-oxo-17α-(2-methyl-tetrahydrothiophen-2-ylcarbonyl)oxy-androsta-1,4-diene-17β-carbothioic acid S-fluoromethyl ester]  2650
4. CC1CC2C3CC(F)C4=CC(=O)C=CC4(C)C3(F)C(O)CC2(C)C1(OC(=O)C1(C)CCCS1)C(=O)SCF (stereo not drawn) [Example 13B, 6α,9α-Difluoro-11β-hydroxy-16α-methyl-3-oxo-17α-(2-methyl-tetrahydrothiophen-2-ylcarbonyl)oxy-androsta-1,4-diene-17β-carbothioic acid S-fluoromethyl ester]  1955
5. CC1CC2C3CC(F)C4=CC(=O)C=CC4(C)C3(F)C(O)CC2(C)C1(OC(=O)C1(C)OCCO1)C(=O)SCF (stereo not drawn) [Example 11, 6α,9α-Difluoro-11β-hydroxy-16α-methyl-17α-(2-methyl-1,3-dioxolan-2-ylcarbonyl)oxy-3-oxo-androsta-1,4-diene-17β-carbothioic acid S-fluoromethyl ester]  1620
6. CC1CC2C3CC(F)C4=CC(=O)C=CC4(C)C3(F)C(O)CC2(C)C1(OC(=O)C1SCCS1)C(=O)SCF (stereo not drawn) [Example 4, 6α,9α-Difluoro-17α-(1,3-dithiolan-2-ylcarbonyl)oxy-11β-hydroxy-16α-methyl-3-oxo-androsta-1,4-diene-17β-carbothioic acid S-fluoromethyl ester]  1192
7. CC1CC2C3CC(F)C4=CC(=O)C=CC4(C)C3(F)C(O)CC2(C)C1(OC(=O)C1CCCO1)C(=O)SCF (stereo not drawn) [Example 2, 6α,9α-Difluoro-11β-hydroxy-16α-methyl-3-oxo-17α-(tetrahydrofuran-2R-ylcarbonyl)oxy-androsta-1,4-diene-17β-carbothioic acid S-fluoromethyl ester]  1099
8. CC1CC2C3CC(F)C4=CC(=O)C=CC4(C)C3(F)C(O)CC2(C)C1(OC(=O)C1CSC1)C(=O)SCF (stereo not drawn) [Example 6, 6α,9α-Difluoro-11β-hydroxy-16α-methyl-3-oxo-17α-(thietan-3-ylcarbonyl)oxy-androsta-1,4-diene-17β-carbothioic acid S-fluoromethyl ester]  500
9. CCC(=O)O[C@]1(C(=O)SCF)[C@H](C)C[C@H]2[C@@H]3C[C@H](F)C4=CC(=O)C=C[C@]4(C)[C@@]3(F)[C@@H](O)C[C@@]21C [Fluticasone propionate, 6α,9α-Difluoro-17α-(1-oxopropoxy)-11β-hydroxy-16α-methyl-3-oxo-androsta-1,4-diene-17β-carbothioic acid S-fluoromethyl ester, reference compound]  82
